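Exposure lasted 48 hours, with cells grown in 96-well plates and compounds tested at five concentrations. Abbreviation: GI50, concentration required for 50% inhibition of growth.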 The source made the active and inactive calls. No stated cut-off is given here; in the data, active = GI50 up to about 1.1 µM and inactive = higher.
Experiments:
Assay in all cases: NCI tumour cell line growth inhibition, 48 h
HL-60 = test system: HL-60
CCRF-CEM = test system: CCRF-CEM
OVCAR-5 = test system: OVCAR-5
SK-MEL-5 = test system: SK-MEL-5
OVCAR-4 = test system: OVCAR-4
M14 = test system: M14
A549 = test system: A549
RPMI-8226 = test system: RPMI-8226
K562 = test system: K562
SK-OV-3 = test system: SK-OV-3
LOX IMVI = test system: LOX IMVI
SNB-75 = test system: SNB-75
SF-539 = test system: SF-539
ACHN = test system: ACHN
DU-145 = test system: DU-145
U-251 = test system: U-251
PC-3 = test system: PC-3
KM12 = test system: KM12
BT-549 = test system: BT-549
SR = test system: SR

Row | SMILES | GI50 (HL-60) | GI50 (CCRF-CEM) | GI50 (OVCAR-5) | GI50 (SK-MEL-5) | GI50 (OVCAR-4) | GI50 (M14) | GI50 (A549) | GI50 (RPMI-8226) | GI50 (K562) | GI50 (SK-OV-3) | GI50 (LOX IMVI) | GI50 (SNB-75) | GI50 (SF-539) | GI50 (ACHN) | GI50 (DU-145) | GI50 (U-251) | GI50 (PC-3) | GI50 (KM12) | GI50 (BT-549) | GI50 (SR)
1 | COc1cc(C(O)CCBr)c(OC)cc1C (stereo not given) | > 24.7 µM (inactive) | 3.07 µM (inactive) | > 47.1 µM (inactive) | 6.18 µM (inactive) | 52.8 µM (inactive) | 4.6 µM (inactive) | > 100 µM (inactive) | 6.73 µM (inactive) | 3.61 µM (inactive) | 35.3 µM (inactive) | 8.95 µM (inactive) | 30.1 µM (inactive) | 8.17 µM (inactive) | 35.7 µM (inactive) | 43.2 µM (inactive) | 33.2 µM (inactive) | 6.65 µM (inactive) | 29.9 µM (inactive) | 23 µM (inactive) | 13 µM (inactive)
2 | CC1=C(C(=O)NNC(=O)C(N)=O)CC(C(=O)NNC(=O)C(N)=O)=C(C)N1 | 47.4 µM (inactive) | > 100 µM (inactive) | > 100 µM (inactive) | > 100 µM (inactive) | > 100 µM (inactive) | > 100 µM (inactive) | > 100 µM (inactive) | > 100 µM (inactive) | > 100 µM (inactive) | > 100 µM (inactive) | > 100 µM (inactive) | > 100 µM (inactive) | > 100 µM (inactive) | > 100 µM (inactive) | > 100 µM (inactive) | > 100 µM (inactive) | > 100 µM (inactive) | > 100 µM (inactive) | > 100 µM (inactive) | > 100 µM (inactive)
3 | O=C(c1cccc(OCc2ccccc2)c1OCc1ccccc1)N1CCSC1=S | 5.92 µM (inactive) | 5.05 µM (inactive) | 71.3 µM (inactive) | 14 µM (inactive) | 56.5 µM (inactive) | 33.2 µM (inactive) | 23.7 µM (inactive) | 8.38 µM (inactive) | 9.35 µM (inactive) | 30.1 µM (inactive) | 34.2 µM (inactive) | 5.64 µM (inactive) | 33.3 µM (inactive) | 33.8 µM (inactive) | 28.1 µM (inactive) | 29.1 µM (inactive) | 21 µM (inactive) | 5.13 µM (inactive) | 29.5 µM (inactive) | 8.36 µM (inactive)
4 | N#CC1(C#N)C2=C(CCCC2)NC(c2ccc(Br)cc2)C1(C#N)C#N (stereo not given) | 0.286 µM (active) | 0.226 µM (active) | 9.95 µM (inactive) | 15.5 µM (inactive) | 7.76 µM (inactive) | 2.63 µM (inactive) | 17.2 µM (inactive) | 1.91 µM (inactive) | 0.762 µM (active) | 22.7 µM (inactive) | 2.11 µM (inactive) | 15.7 µM (inactive) | 14.2 µM (inactive) | 1.77 µM (inactive) | 12.5 µM (inactive) | 13.5 µM (inactive) | 13.7 µM (inactive) | 15.1 µM (inactive) | 13.8 µM (inactive) | 0.782 µM (active)
5 | COc1ccc([C@H]2CC(=O)C[C@H](c3ccc(OC)cc3OC)C23C(=O)c2ccccc2C3=O)c(OC)c1 | > 100 µM (inactive) | > 100 µM (inactive) | > 100 µM (inactive) | 68.1 µM (inactive) | > 100 µM (inactive) | > 100 µM (inactive) | > 100 µM (inactive) | > 100 µM (inactive) | > 100 µM (inactive) | > 100 µM (inactive) | 65 µM (inactive) | 26.9 µM (inactive) | > 100 µM (inactive) | > 100 µM (inactive) | > 100 µM (inactive) | > 100 µM (inactive) | > 100 µM (inactive) | > 100 µM (inactive) | > 100 µM (inactive) | > 100 µM (inactive)
6 | Cc1cccc(C2NC(=O)c3ccccc3N2)c1 (stereo not given) | 0.802 µM (active) | 3.23 µM (inactive) | 17.3 µM (inactive) | 3.38 µM (inactive) | > 49.1 µM (inactive) | 2.64 µM (inactive) | 6.12 µM (inactive) | 3.2 µM (inactive) | 0.906 µM (active) | 4.4 µM (inactive) | > 27 µM (inactive) | 4.5 µM (inactive) | 2.33 µM (inactive) | 12.9 µM (inactive) | 7.96 µM (inactive) | 4.95 µM (inactive) | 3.95 µM (inactive) | 3.21 µM (inactive) | 5.68 µM (inactive) | 0.791 µM (active)
7 | Nc1nc(Cl)c2ncn(Cc3ccc(CCl)cc3)c2n1 | 6.81 µM (inactive) | 2.68 µM (inactive) | 3.29 µM (inactive) | 15.3 µM (inactive) | 15.6 µM (inactive) | 14 µM (inactive) | 15.7 µM (inactive) | 3.83 µM (inactive) | 3.61 µM (inactive) | 15.1 µM (inactive) | 5.41 µM (inactive) | 23.1 µM (inactive) | 3.13 µM (inactive) | 9.62 µM (inactive) | 6.59 µM (inactive) | 3.56 µM (inactive) | 7.45 µM (inactive) | 8.07 µM (inactive) | 6.84 µM (inactive) | 3.02 µM (inactive)
8 | CNC(=O)OCc1nc(SC)n(C)c1COC(=O)NC | 55.2 µM (inactive) | 44.8 µM (inactive) | 170 µM (inactive) | 153 µM (inactive) | 129 µM (inactive) | 164 µM (inactive) | 242 µM (inactive) | 117 µM (inactive) | 147 µM (inactive) | 63 µM (inactive) | 133 µM (inactive) | 167 µM (inactive) | 133 µM (inactive) | 64.1 µM (inactive) | > 81.3 µM (inactive) | 166 µM (inactive) | 171 µM (inactive) | 191 µM (inactive) | 118 µM (inactive) | 71.4 µM (inactive)
9 | Cc1cccc(NC(=O)/C=C/c2ccccc2)c1C | > 100 µM (inactive) | > 100 µM (inactive) | > 100 µM (inactive) | > 100 µM (inactive) | > 100 µM (inactive) | > 100 µM (inactive) | > 100 µM (inactive) | > 100 µM (inactive) | > 100 µM (inactive) | > 100 µM (inactive) | > 100 µM (inactive) | 77.6 µM (inactive) | > 100 µM (inactive) | > 100 µM (inactive) | > 100 µM (inactive) | > 100 µM (inactive) | > 100 µM (inactive) | > 100 µM (inactive) | > 100 µM (inactive) | > 100 µM (inactive)
10 | Nc1cc(Cl)cc2cc(Cl)cnc12 | 43.1 µM (inactive) | 14 µM (inactive) | > 100 µM (inactive) | > 100 µM (inactive) | > 100 µM (inactive) | > 100 µM (inactive) | > 100 µM (inactive) | > 100 µM (inactive) | > 100 µM (inactive) | > 100 µM (inactive) | > 100 µM (inactive) | 40.3 µM (inactive) | > 100 µM (inactive) | > 100 µM (inactive) | > 100 µM (inactive) | > 100 µM (inactive) | 72.3 µM (inactive) | > 100 µM (inactive) | > 100 µM (inactive) | 38 µM (inactive)
11 | CN1Cc2cc(O)c(O)cc2C(O)C1 (stereo not given) | 38.3 µM (inactive) | 34.8 µM (inactive) | > 100 µM (inactive) | > 100 µM (inactive) | > 100 µM (inactive) | > 100 µM (inactive) | > 100 µM (inactive) | > 100 µM (inactive) | > 100 µM (inactive) | > 100 µM (inactive) | 69.2 µM (inactive) | > 100 µM (inactive) | > 100 µM (inactive) | > 100 µM (inactive) | > 100 µM (inactive) | > 100 µM (inactive) | > 100 µM (inactive) | > 100 µM (inactive) | > 100 µM (inactive) | 1.19 µM (inactive)
